Source: patent US20220174947A1, “ANTIMICROBIAL MIXTURE CONTAINING 4-(3-ETHOXY-4-HYDROXYPHENYL)BUTAN-2-ONE AND AN ALCOHOL COMPOUND, AND COSMETIC COMPOSITION CONTAINING SAME” (L'OREAL, priority 2018, published 2022)

Assays:
[1] = tested on: Candida albicans ATCC 10231; experiment: Synergistic antimicrobial activity as MIC, 96-well microplate, optical density at 620 nm; format: cell-based; conditions: for microbial growth percentage: 0 B5 weight %
Source text: with: • MIC of A with B: minimum concentration of product A in the combination A+B which makes it possible to obtain an inhibitory effect; • MIC of B with A: minimum concentration of product B in the combination A+B which makes it possible to obtain an inhibitory effect; • MIC of A: minimum inhibitory concentration of product A alone; • MIC of B: minimum inhibitory concentration of product B alone. This formula was described for the first time in the article by F. C. Kull, […], and R. L. Mayer, Applied Microbiology 9:538-541, 1961. […] When the FIC index value is less than or equal to 1, it is considered that the combination of test compounds has a synergistic effect. […] A 96-well microplate at an incubation temperature of 32.5° C. is used. […] For each compound: […] 50 μl of each of the daughter solutions obtained containing compound A and 50 μl of each of the daughter solutions obtained containing compound B are added to the microplate wells. 100 μl of Sabouraud liquid nutrient broth inoculated at double concentration with the strain Aspergillus niger are also added thereto. A positive microbial growth control was also prepared. […] An absorbance control was performed in parallel on compounds A and B alone. This control corresponds to 100 μl of double concentration sterile Sabouraud liquid nutrient broth+100 μl of double concentration compound A or B. […] The test as described above (tests, absorbance control and growth control) was performed again to test the combination A+B on the following strains Enterococcus faecalis, Staphylococcus aureus, Pseudomonas aeruginosa, Candida albicans, where appropriate.

[2] = tested on: Staphylococcus aureus ATCC 6538; experiment: as above; format: cell-based; conditions: for % MIC of A alone: Staphylococcus aureus, growth <= 25%
Source text: FIC Index=(MIC of A with B/MIC of A)+(MIC of B with A/MIC of B [Math. 1]
with: • MIC of A with B: minimum concentration of product A in the combination A+B which makes it possible to obtain an inhibitory effect; • MIC of B with A: minimum concentration of product B in the combination A+B which makes it possible to obtain an inhibitory effect; • MIC of A: minimum inhibitory concentration of product A alone; • MIC of B: minimum inhibitory concentration of product B alone. This formula was described for the first time in the article by F. C. Kull, P. C. Eisman, H. D. Sylwestrowka, and R. L. Mayer, Applied Microbiology 9:538-541, 1961.
The microbial strain Staphylococcus aureus ATCC 6538 and a double-concentration nutrient broth liquid culture medium were used.
A 96-well microplate at an incubation temperature of 32.5° C. is used.
The incubation time of the microplate is: • from 24 to 30 h under aerobic conditions for microbial Aspergillus niger ATCC 6275; • from 18 to 24 h under aerobic conditions for Candida albicans ATCC 10231, Pseudomonas aeruginosa ATCC 9027 and Staphylococcus aureus ATCC 6538; • from 24 to 48 h under aerobic conditions for Enterococcus faecalis ATCC 33186.
For each compound: A=4-(3-ethoxy-4-hydroxyphenyl) butan-2-one compound B=alcohol compound A 10% (weight/volume) stock solution was prepared by mixing 1 g of compound in 9 ml of aqueous 1% agar solution. Successive dilutions were made with the 1% agar solution.
50 μl of each of the daughter solutions obtained containing compound A or B are added to the microplate wells. 100 μl of Sabouraud liquid nutrient broth inoculated at double concentration with the Aspergillus niger strain and 50 μl of aqueous 1% agar solution are also added thereto.
50 μl of each of the daughter solutions obtained containing compound A and 50 μl of each of the daughter solutions obtained containing compound B are added to the microplate wells. 100 μl of Sabouraud liquid nutrient broth inoculated at double concentration with the strain Aspergillus niger are also added thereto.
A positive microbial growth control was also prepared. The positive microbial growth control corresponds to a mixture of 100 μl of aqueous 1% agar solution with 100 μl of Sabouraud liquid nutrient broth inoculated at double concentration with the strain Aspergillus niger in the absence of compounds A and B.
An absorbance control was performed in parallel on compounds A and B alone. This control corresponds to 100 μl of double concentration sterile Sabouraud liquid nutrient broth+100 μl of double concentration compound A or B.
In the three cases (absorbance control, growth control and test), the final volume present in each of the microplate wells is 200 μl.
The test as described above (tests, absorbance control and growth control) was performed again to test the combination A+B on the following strains Enterococcus faecalis, Staphylococcus aureus, Pseudomonas aeruginosa, Candida albicans, where appropriate.

For `CCOc1cc(CCC(C)=O)ccc1O` [A, 4-(3-ethoxy-4-hydroxyphenyl)butan-2-one], the microbial growth percentage ([1]; 0.025 A) was 69%, the microbial growth percentage ([1]; 0.05 A) was 54% and the microbial growth percentage ([1]; 0.1 A) was 27%. For the same compound, the microbial growth percentage ([1]; 0.2 A) was 4%, the “% MIC of A alone” value ([1]; Candida albicans, Example 5, growth <= 25%) was 0.2% and the microbial growth percentage ([2]; 0.0625 A, 0 B2 weight %) was 52%. For the same compound, the microbial growth percentage ([2]; 0.0625 A, 0 B6 weight %) was 65%, the microbial growth percentage ([2]; 0.125 A, 0 B2 weight %) was 49% and the microbial growth percentage ([2]; 0.125 A, 0 B6 weight %) was 75%. It also gave a microbial growth percentage ([2]; 0.25 A, 0 B2 weight %) of 52%, a microbial growth percentage ([2]; 0.25 A, 0 B6 weight %) of 79% and a microbial growth percentage ([2]; 0.5 A, 0 B2 weight %) of 75%. The microbial growth percentage ([2]; 0.5 A, 0 B6 weight %) was 24%, the microbial growth percentage ([2]; 1 A, 0 B2 weight %) was 2% and the microbial growth percentage ([2]; 1 A, 0 B6 weight %) was 5%. The “% MIC of A alone” value ([2]; Example 2) was 1% and the “% MIC of A alone” value ([2]; Example 6) was 1%.
